Data as given in ChEMBL document CHEMBL3045592, “Studies of O,O-dimethyl α-(2,4-dichlorophenoxyacetoxy)ethylphosphonate (HW02) as a new herbicide. 1. Synthesis and herbicidal activity of HW02 and analogues as novel inhibitors of pyruvate dehydrogenase complex” (J Agric Food Chem, 2011).

Assays:
Digitaria sanguinalis [1] = experiment: Pre-emergence herbicidal activity against Digitaria sanguinalis (hairy crabgrass) assessed as growth inhibition at 450 ai g/ha after 20 days by green house test; format: functional
Amaranthus spinosus [2] = experiment: Pre-emergence herbicidal activity against Amaranthus spinosus assessed as growth inhibition at 150 ai g/ha after 20 days by green house test; format: functional
Digitaria sanguinalis [3] = experiment: Post-emergence herbicidal activity against Digitaria sanguinalis (hairy crabgrass) assessed as growth inhibition at 1500 ai g/ha after 20 days by green house test; format: functional
Amaranthus retroflexus [4] = experiment: Post-emergence herbicidal activity against Amaranthus retroflexus assessed as growth inhibition at 450 ai g/ha after 20 days by green house test; format: functional
Medicago sativa [5] = experiment: Pre-emergence herbicidal activity against Medicago sativa (alfalfa) assessed as growth inhibition at 1500 ai g/ha after 20 days by green house test; format: functional
Amaranthus spinosus [6] = experiment: Post-emergence herbicidal activity against Amaranthus spinosus assessed as growth inhibition at 150 ai g/ha after 20 days by green house test; format: functional
Cucumis sativus [7] = experiment: Herbicidal activity against Cucumis sativus Jin 4 (cucumber) assessed as inhibition of stem growth after 3 days; format: functional, organism-based; conditions: Jin 4, 72 h
Amaranthus retroflexus [8] = experiment: Pre-emergence herbicidal activity against Amaranthus retroflexus assessed as growth inhibition at 1500 ai g/ha after 20 days by green house test; format: functional
Setaria viridis [9] = experiment: Pre-emergence herbicidal activity against Setaria viridis (green foxtail) assessed as growth inhibition at 75 ai g/ha after 20 days by green house test; format: functional
Brassica juncea = experiment: Post-emergence herbicidal activity against Brassica juncea assessed as growth inhibition at 450 ai g/ha after 20 days by green house test; format: functional
Chenopodium album [10] = experiment: Post-emergence herbicidal activity against Chenopodium album assessed as growth inhibition at 450 ai g/ha after 20 days by green house test; format: functional
Abutilon theophrasti [11] = experiment: Post-emergence herbicidal activity against Abutilon theophrasti (velvetleaf) assessed as growth inhibition at 75 ai g/ha after 20 days by green house test; format: functional
Abutilon theophrasti [12] = experiment: Post-emergence herbicidal activity against Abutilon theophrasti (velvetleaf) assessed as growth inhibition at 150 ai g/ha after 20 days by green house test; format: functional
Echinochloa crus-galli [13] = experiment: Pre-emergence herbicidal activity against Echinochloa crus-galli (barnyard grass) assessed as growth inhibition at 1500 ai g/ha after 20 days by green house test; format: functional
Amaranthus spinosus [14] = experiment: Post-emergence herbicidal activity against Amaranthus spinosus assessed as growth inhibition at 75 ai g/ha after 20 days by green house test; format: functional
Digitaria sanguinalis [15] = experiment: Pre-emergence herbicidal activity against Digitaria sanguinalis (hairy crabgrass) assessed as growth inhibition at 1500 ai g/ha after 20 days by green house test; format: functional
Digitaria sanguinalis [16] = experiment: Pre-emergence herbicidal activity against Digitaria sanguinalis (hairy crabgrass) assessed as growth inhibition at 150 ai g/ha after 20 days by green house test; format: functional
Chenopodium album [17] = experiment: Pre-emergence herbicidal activity against Chenopodium album assessed as growth inhibition at 450 ai g/ha after 20 days by green house test; format: functional
Setaria viridis [18] = experiment: Pre-emergence herbicidal activity against Setaria viridis (green foxtail) assessed as growth inhibition at 150 ai g/ha after 20 days by green house test; format: functional
Digitaria sanguinalis [19] = experiment: Pre-emergence herbicidal activity against Digitaria sanguinalis (hairy crabgrass) assessed as growth inhibition at 75 ai g/ha after 20 days by green house test; format: functional
Digitaria sanguinalis [20] = experiment: Post-emergence herbicidal activity against Digitaria sanguinalis (hairy crabgrass) assessed as growth inhibition at 75 ai g/ha after 20 days by green house test; format: functional
Abutilon theophrasti [21] = experiment: Post-emergence herbicidal activity against Abutilon theophrasti (velvetleaf) assessed as growth inhibition at 450 ai g/ha after 20 days by green house test; format: functional
Digitaria sanguinalis [22] = experiment: Post-emergence herbicidal activity against Digitaria sanguinalis (hairy crabgrass) assessed as growth inhibition at 450 ai g/ha after 20 days by green house test; format: functional
Abutilon theophrasti [23] = experiment: Pre-emergence herbicidal activity against Abutilon theophrasti (velvetleaf) assessed as growth inhibition at 150 ai g/ha after 20 days by green house test; format: functional
Digitaria sanguinalis [24] = experiment: Post-emergence herbicidal activity against Digitaria sanguinalis (hairy crabgrass) assessed as growth inhibition at 150 ai g/ha after 20 days by green house test; format: functional
Amaranthus spinosus [25] = experiment: Pre-emergence herbicidal activity against Amaranthus spinosus assessed as growth inhibition at 75 ai g/ha after 20 days by green house test; format: functional
Amaranthus spinosus [26] = experiment: Pre-emergence herbicidal activity against Amaranthus spinosus assessed as growth inhibition at 450 ai g/ha after 20 days by green house test; format: functional
[27] = biological target: Pyruvate dehydrogenase complex (Vigna radiata var. radiata); experiment: Inhibition of PDHc in Vigna radiata var. radiata VC2778A shoot mitochondria assessed as decrease in rate of NADH formation using sodium pyruvate as substrate preincubated for 25 min before substrate addition measured after 1 min by spectrophotometric assay; format: protein-complex assay
[28] = test system: Brassica rapa subsp. oleifera; experiment: Post-emergence herbicidal activity against Brassica rapa subsp. oleifera Si Yue Man assessed as growth inhibition at 1500 ai g/ha after 20 days by green house test; format: functional
Abutilon theophrasti [29] = experiment: Pre-emergence herbicidal activity against Abutilon theophrasti (velvetleaf) assessed as growth inhibition at 450 ai g/ha after 20 days by green house test; format: functional
[30] = test system: Brassica rapa subsp. oleifera; experiment: Pre-emergence herbicidal activity against Brassica rapa subsp. oleifera Si Yue Man assessed as growth inhibition at 1500 ai g/ha after 20 days by green house test; format: functional
Setaria viridis [31] = experiment: Post-emergence herbicidal activity against Setaria viridis (green foxtail) assessed as growth inhibition at 150 ai g/ha after 20 days by green house test; format: functional
Chenopodium album [32] = experiment: Post-emergence herbicidal activity against Chenopodium album assessed as growth inhibition at 75 ai g/ha after 20 days by green house test; format: functional
Chenopodium album [33] = experiment: Post-emergence herbicidal activity against Chenopodium album assessed as growth inhibition at 150 ai g/ha after 20 days by green house test; format: functional
Echinochloa crus-galli [34] = experiment: Post-emergence herbicidal activity against Echinochloa crus-galli (barnyard grass) assessed as growth inhibition at 1500 ai g/ha after 20 days by green house test; format: functional
Echinochloa crus-galli [35] = experiment: Post-emergence herbicidal activity against Echinochloa crus-galli (barnyard grass) assessed as growth inhibition at 450 ai g/ha after 20 days by green house test; format: functional
Pisum sativum = experiment: Post-emergence herbicidal activity against Pisum sativum Zhongwan-2 (pea) assessed as growth inhibition at 450 ai g/ha after 20 days by green house test; conditions: Lathyrus oleraceus
Setaria viridis [36] = experiment: Post-emergence herbicidal activity against Setaria viridis (green foxtail) assessed as growth inhibition at 75 ai g/ha after 20 days by green house test; format: functional
Setaria viridis [37] = experiment: Pre-emergence herbicidal activity against Setaria viridis (green foxtail) assessed as growth inhibition at 450 ai g/ha after 20 days by green house test; format: functional
Amaranthus retroflexus [38] = experiment: Post-emergence herbicidal activity against Amaranthus retroflexus assessed as growth inhibition at 1500 ai g/ha after 20 days by green house test; format: functional
Chenopodium album [39] = experiment: Pre-emergence herbicidal activity against Chenopodium album assessed as growth inhibition at 75 ai g/ha after 20 days by green house test; format: functional
Abutilon theophrasti [40] = experiment: Pre-emergence herbicidal activity against Abutilon theophrasti (velvetleaf) assessed as growth inhibition at 75 ai g/ha after 20 days by green house test; format: functional
Amaranthus spinosus [41] = experiment: Post-emergence herbicidal activity against Amaranthus spinosus assessed as growth inhibition at 450 ai g/ha after 20 days by green house test; format: functional
Medicago sativa [42] = experiment: Post-emergence herbicidal activity against Medicago sativa (alfalfa) assessed as growth inhibition at 1500 ai g/ha after 20 days by green house test; format: functional
Cucumis sativus [43] = experiment: Herbicidal activity against Cucumis sativus Jin 4 (cucumber) assessed as inhibition of root growth after 3 days; format: functional, organism-based; conditions: Jin 4, 72 h
Chenopodium album [44] = experiment: Pre-emergence herbicidal activity against Chenopodium album assessed as growth inhibition at 150 ai g/ha after 20 days by green house test; format: functional
[45] = Toxicity against Oryza sativa (rice) assessed as growth inhibition at 450 ai g/ha post-emergent application measured after 20 days by green house crop selectivity test; format: organism-based; conditions: in vivo, read-out: GI
Setaria viridis [46] = experiment: Post-emergence herbicidal activity against Setaria viridis (green foxtail) assessed as growth inhibition at 450 ai g/ha after 20 days by green house test; format: functional

COP(=O)(COC(=O)COc1ccc(Cl)cc1Cl)OC
growth inhibition (GI) (Digitaria sanguinalis [1]): 0%
growth inhibition (GI) (Amaranthus spinosus [2]): 0%
growth inhibition (GI) (Digitaria sanguinalis [3]): <=50%
growth inhibition (GI) (Amaranthus retroflexus [4]): 97.5%
growth inhibition (GI) (Medicago sativa [5]): 75%
growth inhibition (GI) (Amaranthus spinosus [6]): 92.5%
IC50 (Cucumis sativus [7]): 7.79 µM
growth inhibition (GI) (Amaranthus retroflexus [8]): 90%
growth inhibition (GI) (Setaria viridis [9]): 0%
growth inhibition (GI) (Brassica juncea): 100%
growth inhibition (GI) (Chenopodium album [10]): 100%
growth inhibition (GI) (Abutilon theophrasti [11]): 82.5%
growth inhibition (GI) (Abutilon theophrasti [12]): 99%
growth inhibition (GI) (Echinochloa crus-galli [13]): <=50%
growth inhibition (GI) (Amaranthus spinosus [14]): 62.5%
growth inhibition (GI) (Digitaria sanguinalis [15]): 90%
growth inhibition (GI) (Digitaria sanguinalis [16]): 0%
growth inhibition (GI) (Chenopodium album [17]): 52.5%
growth inhibition (GI) (Setaria viridis [18]): 0%
growth inhibition (GI) (Digitaria sanguinalis [19]): 0%
growth inhibition (GI) (Digitaria sanguinalis [20]): 0%
growth inhibition (GI) (Abutilon theophrasti [21]): 100%
growth inhibition (GI) (Digitaria sanguinalis [22]): 0%
growth inhibition (GI) (Abutilon theophrasti [23]): 0%
growth inhibition (GI) (Digitaria sanguinalis [24]): 0%
growth inhibition (GI) (Amaranthus spinosus [25]): 0%
growth inhibition (GI) (Amaranthus spinosus [26]): 52.5%
IC50 [27]: 19.7 µM
growth inhibition (GI) [28]: 90%
growth inhibition (GI) (Abutilon theophrasti [29]): 47.5%
growth inhibition (GI) [30]: 90%
growth inhibition (GI) (Setaria viridis [31]): 0%
growth inhibition (GI) (Chenopodium album [32]): 82.5%
growth inhibition (GI) (Chenopodium album [33]): 99.5%
growth inhibition (GI) (Echinochloa crus-galli [34]): <=50%
growth inhibition (GI) (Echinochloa crus-galli [35]): 0%
growth inhibition (GI) (Pisum sativum): 87.5%
growth inhibition (GI) (Setaria viridis [36]): 0%
growth inhibition (GI) (Setaria viridis [37]): 5%
growth inhibition (GI) (Amaranthus retroflexus [38]): 90%
growth inhibition (GI) (Chenopodium album [39]): 0%
growth inhibition (GI) (Abutilon theophrasti [40]): 0%
growth inhibition (GI) (Amaranthus spinosus [41]): 97.5%
growth inhibition (GI) (Medicago sativa [42]): 90%
IC50 (Cucumis sativus [43]): 0.0577 µM
growth inhibition (GI) (Chenopodium album [44]): 0%
inhibition at 480 h [45]: 0%
growth inhibition (GI) (Setaria viridis [46]): 0%

COP(=O)(OC)C(OC(=O)COc1ccc(Cl)cc1Cl)c1ccccc1 (stereo unspecified)
growth inhibition (GI) (Digitaria sanguinalis [1]): 45%
growth inhibition (GI) (Amaranthus spinosus [2]): 0%
growth inhibition (GI) (Digitaria sanguinalis [3]): <=50%
growth inhibition (GI) (Amaranthus retroflexus [4]): 87.5%
growth inhibition (GI) (Medicago sativa [5]): 90%
growth inhibition (GI) (Amaranthus spinosus [6]): 70%
IC50 (Cucumis sativus [7]): 8.95 µM
growth inhibition (GI) (Amaranthus retroflexus [8]): 90%
growth inhibition (GI) (Setaria viridis [9]): 0%
growth inhibition (GI) (Brassica juncea): 97.5%
growth inhibition (GI) (Chenopodium album [10]): 97.5%
growth inhibition (GI) (Abutilon theophrasti [11]): 82.5%
growth inhibition (GI) (Abutilon theophrasti [12]): 92.5%
growth inhibition (GI) (Echinochloa crus-galli [13]): 50%
growth inhibition (GI) (Amaranthus spinosus [14]): 62.5%
growth inhibition (GI) (Digitaria sanguinalis [15]): 50%
growth inhibition (GI) (Digitaria sanguinalis [16]): 0%
growth inhibition (GI) (Chenopodium album [17]): 0%
growth inhibition (GI) (Setaria viridis [18]): 0%
growth inhibition (GI) (Digitaria sanguinalis [19]): 0%
growth inhibition (GI) (Digitaria sanguinalis [20]): 0%
growth inhibition (GI) (Abutilon theophrasti [21]): 100%
growth inhibition (GI) (Digitaria sanguinalis [22]): 0%
growth inhibition (GI) (Abutilon theophrasti [23]): 0%
growth inhibition (GI) (Digitaria sanguinalis [24]): 0%
growth inhibition (GI) (Amaranthus spinosus [25]): 0%
growth inhibition (GI) (Amaranthus spinosus [26]): 0%
IC50 [27]: 95.4 µM
growth inhibition (GI) [28]: 90%
growth inhibition (GI) (Abutilon theophrasti [29]): 0%
growth inhibition (GI) [30]: 90%
growth inhibition (GI) (Setaria viridis [31]): 0%
growth inhibition (GI) (Chenopodium album [32]): 82.5%
growth inhibition (GI) (Chenopodium album [33]): 92.5%
growth inhibition (GI) (Echinochloa crus-galli [34]): <=50%
growth inhibition (GI) (Echinochloa crus-galli [35]): 25%
growth inhibition (GI) (Pisum sativum): 96.5%
growth inhibition (GI) (Setaria viridis [36]): 0%
growth inhibition (GI) (Setaria viridis [37]): 30%
growth inhibition (GI) (Amaranthus retroflexus [38]): 90%
growth inhibition (GI) (Chenopodium album [39]): 0%
growth inhibition (GI) (Abutilon theophrasti [40]): 0%
growth inhibition (GI) (Amaranthus spinosus [41]): 87.5%
growth inhibition (GI) (Medicago sativa [42]): 90%
IC50 (Cucumis sativus [43]): 0.0142 µM
growth inhibition (GI) (Chenopodium album [44]): 0%
inhibition at 480 h [45]: 10%
growth inhibition (GI) (Setaria viridis [46]): 0%
